Test results taken from patent publication US20130172378A1, “Combination of BRAF and VEGF Inhibitors” (GlaxoSmithKline LLC, priority 2010, published 2013).

How the values were obtained:
Type in all cases: in vivo, CD-1 nude mice
[1] = Body weight of nude mice bearing A375P F11s xenografts during treatment; settings: in g (unit assumed)
Procedure: (§1) Female CD-1 nude mice of 6-8 weeks in age were used in these studies; all mice were obtained from Charles River Laboratories (Wilmington, Del.). Animals were housed in pathogen free conditions and handled with aseptic technique.
(§2) Mice with similar sized tumors (100-300 mm^3) were identified. The length and width of the tumors were measured by handheld calipers and body weights of the mice were measured using a bench top weighing scale. Tumor volumes were calculated based on the following formula: tumor volume=(Length×Width^2)/2. Mice were block randomized into the required number of dosing groups (n=8 mice/group). The randomization process ensured that the average tumor volume for each dosing group was approximately equal at the beginning of the study and mice with differing tumor volumes were evenly distributed. Mice were placed in groups of eight accordingly and dosed with either vehicle or compound for 36 days either once or twice daily, as summarised in the table below. Mice were weighed and tumors measured twice weekly for the duration of the study using Studylog animal study management software (Studylog Systems, Inc., South San Francisco, Calif., USA).

[2] = tested on: A375P F11s tumor xenografts (human melanoma, BRAF V600E); experiment: A375P F11s melanoma tumor xenograft efficacy in nude mice
[3] = tested on: A375P F11s tumor xenografts (human melanoma, BRAF V600E); experiment: as above; remark: listed apart in the source
Procedure: as §1
The A375P F11s cell lines were grown in RPMI growth medium supplemented with 10% fetal bovine serum (FBS), 1% sodium pyruvate and 1% penicillin-streptomycin in a humidified 37° C. chamber with 5% CO2. Cells were expanded to obtain the large numbers of cells required for each injection; cells were grown in log phase, without reaching confluency and passaged regularly.
Detached cells were collected, centrifuged (1500 rpm, 5 min, 4° C.) and rinsed to remove the trypsin solution. Cells were re-suspended in PBS without magnesium or calcium and counted.
Compounds were administered in vehicles as described below.
as §2
Tumor volumes were calculated based on the following formula: tumor volume=(Length×Width^2)/2. Tumor growth curves were created from the mean±standard error of the mean, with n=8 animals per group. The percentage of tumor growth inhibition was calculated on the final day of dosing using the following formula: 1−(tumor volume in drug-treated population/tumor volume in vehicle-treated control population).

[4] = group 3: Compound B 10 mg/kg PO QD, study day 0
[5] = group 3: Compound B 10 mg/kg PO QD, study day 3
[6] = group 3: Compound B 10 mg/kg PO QD, study day 7
[7] = group 3: Compound B 10 mg/kg PO QD, study day 9
[8] = group 3: Compound B 10 mg/kg PO QD, study day 15
[9] = group 3: Compound B 10 mg/kg PO QD, study day 18
[10] = group 3: Compound B 10 mg/kg PO QD, study day 22
[11] = group 3: Compound B 10 mg/kg PO QD, study day 25
[12] = group 3: Compound B 10 mg/kg PO QD, study day 28
[13] = group 3: Compound B 10 mg/kg PO QD, study day 31
[14] = group 4: Compound B 30 mg/kg PO QD, study day 0
[15] = group 4: Compound B 30 mg/kg PO QD, study day 3
[16] = group 4: Compound B 30 mg/kg PO QD, study day 7
[17] = group 4: Compound B 30 mg/kg PO QD, study day 9
[18] = group 4: Compound B 30 mg/kg PO QD, study day 15
[19] = group 4: Compound B 30 mg/kg PO QD, study day 18
[20] = group 4: Compound B 30 mg/kg PO QD, study day 22
[21] = group 4: Compound B 30 mg/kg PO QD, study day 25
[22] = group 4: Compound B 30 mg/kg PO QD, study day 28
[23] = group 4: Compound B 30 mg/kg PO QD, study day 31
[24] = group 4: Compound B 30 mg/kg PO QD, study day 35
[25] = group 4: Compound B 30 mg/kg PO QD, study day 37

Cc1ccc(Nc2nccc(N(C)c3ccc4c(C)n(C)nc4c3)n2)cc1S(N)(=O)=O [Compound A, 5-[[4-[(2,3-dimethyl-2H-indazol-6-yl)methylamino]-2-pyrimidinyl]amino]-2-methylbenzenesulfonamide]
Mean body weight of nude mice ([1]; group 2: Compound A 100 mg/kg PO BID, study day 0): 24.98
Mean body weight of nude mice ([1]; group 2: Compound A 100 mg/kg PO BID, study day 3): 25.13
Mean body weight of nude mice ([1]; group 2: Compound A 100 mg/kg PO BID, study day 7): 25.63
Mean body weight of nude mice ([1]; group 2: Compound A 100 mg/kg PO BID, study day 15): 24.83
Mean body weight of nude mice ([1]; group 2: Compound A 100 mg/kg PO BID, study day 18): 25.35
Mean body weight of nude mice ([1]; group 2: Compound A 100 mg/kg PO BID, study day 22): 24.71
Mean body weight of nude mice ([1]; group 2: Compound A 100 mg/kg PO BID, study day 25): 24.79
Mean body weight of nude mice ([1]; group 2: Compound A 100 mg/kg PO BID, study day 28): 24.91
Mean body weight of nude mice ([1]; group 2: Compound A 100 mg/kg PO BID, study day 35): 24.95
Mean body weight of nude mice ([1]; group 2: Compound A 100 mg/kg PO BID, study day 37): 25.00

CC(C)(C)c1nc(-c2cccc(NS(=O)(=O)c3c(F)cccc3F)c2F)c(-c2ccnc(N)n2)s1 [Compound B, N-{3-[5-(2-Amino-4-pyrimidinyl)-2-(1,1-dimethylethyl)-1,3-thiazol-4-yl]-2-fluorophenyl}-2,6-difluorobenzenesulfonamide]
Mean body weight of nude mice [1, 4]: 25.71
Mean body weight of nude mice [1, 5]: 26.14
Mean body weight of nude mice [1, 6]: 26.13
Mean body weight of nude mice [1, 7]: 26.29
Mean body weight of nude mice [1, 8]: 25.69
Mean body weight of nude mice [1, 9]: 26.44
Mean body weight of nude mice [1, 10]: 26.00
Mean body weight of nude mice [1, 11]: 26.45
Mean body weight of nude mice [1, 12]: 26.55
Mean body weight of nude mice [1, 13]: 27.11
Mean body weight of nude mice [1, 14]: 25.49
Mean body weight of nude mice [1, 15]: 25.38
Mean body weight of nude mice [1, 16]: 25.15
Mean body weight of nude mice [1, 17]: 25.35
Mean body weight of nude mice [1, 18]: 24.46
Mean body weight of nude mice [1, 19]: 24.84
Mean body weight of nude mice [1, 20]: 24.67
Mean body weight of nude mice [1, 21]: 24.87
Mean body weight of nude mice [1, 22]: 24.79
Mean body weight of nude mice [1, 23]: 24.83
Mean body weight of nude mice [1, 24]: 24.41
Mean body weight of nude mice [1, 25]: 24.65
Mean A375P F11s tumor volume [2, 4]: 178.5 mm^3
Percent Inhibition of A375P F11s tumor volume compared to vehicle treated mice [2, 4]: −3.6%
Mean A375P F11s tumor volume [2, 5]: 164.5 mm^3
Percent Inhibition of A375P F11s tumor volume compared to vehicle treated mice [2, 5]: 34.3%
Percent Inhibition of A375P F11s tumor volume compared to vehicle treated mice [2, 6]: 39.0%
Mean A375P F11s tumor volume [2, 7]: 247.5 mm^3
Percent Inhibition of A375P F11s tumor volume compared to vehicle treated mice [2, 7]: 36.6%
Mean A375P F11s tumor volume [2, 8]: 350.4 mm^3
Percent Inhibition of A375P F11s tumor volume compared to vehicle treated mice [2, 8]: 45.3%
Mean A375P F11s tumor volume [2, 9]: 469.7 mm^3
Percent Inhibition of A375P F11s tumor volume compared to vehicle treated mice [2, 9]: 35.4%
Mean A375P F11s tumor volume [2, 10]: 494.2 mm^3
Percent Inhibition of A375P F11s tumor volume compared to vehicle treated mice [2, 10]: 47.2%
Mean A375P F11s tumor volume [2, 11]: 581.5 mm^3
Percent Inhibition of A375P F11s tumor volume compared to vehicle treated mice [2, 11]: 46.6%
Mean A375P F11s tumor volume [2, 12]: 682.0 mm^3
Percent Inhibition of A375P F11s tumor volume compared to vehicle treated mice [2, 12]: 45.6%
Mean A375P F11s tumor volume [2, 13]: 830.5 mm^3
Mean A375P F11s tumor volume ([2]; group 3: Compound B 10 mg/kg PO QD, study day 35): 1,105.5 mm^3
Mean A375P F11s tumor volume [2, 14]: 156.9 mm^3
Percent Inhibition of A375P F11s tumor volume compared to vehicle treated mice [2, 14]: 8.9%
Percent Inhibition of A375P F11s tumor volume compared to vehicle treated mice [2, 15]: 42.4%
Mean A375P F11s tumor volume [2, 16]: 104.1 mm^3
Percent Inhibition of A375P F11s tumor volume compared to vehicle treated mice [2, 16]: 66.5%
Percent Inhibition of A375P F11s tumor volume compared to vehicle treated mice [2, 17]: 74.5%
Mean A375P F11s tumor volume [2, 18]: 94.0 mm^3
Percent Inhibition of A375P F11s tumor volume compared to vehicle treated mice [2, 18]: 85.3%
Mean A375P F11s tumor volume [2, 19]: 104.4 mm^3
Percent Inhibition of A375P F11s tumor volume compared to vehicle treated mice [2, 19]: 85.6%
Percent Inhibition of A375P F11s tumor volume compared to vehicle treated mice [2, 20]: 87.6%
Percent Inhibition of A375P F11s tumor volume compared to vehicle treated mice [2, 21]: 87.0%
Mean A375P F11s tumor volume [2, 22]: 148.7 mm^3
Percent Inhibition of A375P F11s tumor volume compared to vehicle treated mice [2, 22]: 88.1%
Mean A375P F11s tumor volume [2, 23]: 166.1 mm^3
Mean A375P F11s tumor volume [2, 25]: 207.6 mm^3
Mean A375P F11s tumor volume [3, 6]: 189.5 mm^3
Mean A375P F11s tumor volume [3, 15]: 144.2 mm^3
Mean A375P F11s tumor volume [3, 17]: 99.5 mm^3
Mean A375P F11s tumor volume [3, 20]: 116.4 mm^3
Mean A375P F11s tumor volume [3, 21]: 142.1 mm^3
Mean A375P F11s tumor volume [3, 24]: 168.1 mm^3
